# Test results taken from patent US9562057B2, “(Thieno[2,3-b][1,5]benzoxazepin-4-yl)piperazin-1-yl compounds as dual activity H1 inverse agonists/5-HT2A antagonists” (Eli Lilly and Company, priority 2013, dated 2017).
# pIC50, pKi: −log10 of the molar value. Structures can show the parent of a compound that is named as a salt.
# Experiments:
# Norepinephrine Transport = Norepinephrine Transport (Homo sapiens, UniProt P23975); assay: Norepinephrine transporter binding
# Text: (§1) Further, the compounds of the invention may be tested in binding assays and functional activity assays by well known methods for other physiologically important receptors such as, but not limited to, the hERG channel, other serotonin receptors (specifically 5-HT1B and 5-HT1D receptors, lack of agonist activity at 5-HT2B receptors, 5-HT2C, 5-HT5, 5-HT6, and 5-HT7 receptors), dopaminergic receptors (specifically D1, D2, and D3), GABAA receptors, adrenergic receptors and monoamine transporters.
# native GABAA receptors = assay: GABAA antagonism using native receptors in primary neuronal cultures (FLIPR calcium flux); format: cell-based; details: against 10 μM GABA, rat cortical embryonic neurons
# Procedure: Activity of compounds on native GABAA receptors is evaluated by monitoring calcium fluxes using a 96 well format FLIPR® system (Fluorometric Imaging Plate Reader (FLIPR®, Molecular Devices). Briefly, cortical embryonic neurons are dissociated from E18 rat embryos and plated at optimum density into black-walled, transparent bottom poly-D-lysine coated 96-well FLIPR® plates. After loading the cells with a calcium sensitive dye (Fluo4-AM, Molecular Devices), the cells are bathed in a solution containing low chloride (chloride replaced by gluconate). Under these conditions activation of GABAA receptors causes an efflux of chloride ions (in the direction of the chemical gradient), which results in membrane depolarization and consequently activation of voltage gated calcium channels (VGCCs). Calcium influx through VGCCs is recorded and analysed offline using the FLIPR® system. For a pharmacological validation of the assay, concentration response curves (CRC) are recorded for the standard agonist (GABA) and standard antagonist (Gabazine). […]
# The antagonist effects of compounds are quantified using 10-point dose response curves by comparing the peak fluorescent responses to the agonist GABA in the presence and absence of compound. […] Antagonist effects are calculated as a percent of the assay window. […]
# 5-HT1D = 5-HT1D (Homo sapiens, UniProt P28221); assay: 5-HT1D binding
# Sequence of 5-HT1D (P28221 whole entry, species assumed): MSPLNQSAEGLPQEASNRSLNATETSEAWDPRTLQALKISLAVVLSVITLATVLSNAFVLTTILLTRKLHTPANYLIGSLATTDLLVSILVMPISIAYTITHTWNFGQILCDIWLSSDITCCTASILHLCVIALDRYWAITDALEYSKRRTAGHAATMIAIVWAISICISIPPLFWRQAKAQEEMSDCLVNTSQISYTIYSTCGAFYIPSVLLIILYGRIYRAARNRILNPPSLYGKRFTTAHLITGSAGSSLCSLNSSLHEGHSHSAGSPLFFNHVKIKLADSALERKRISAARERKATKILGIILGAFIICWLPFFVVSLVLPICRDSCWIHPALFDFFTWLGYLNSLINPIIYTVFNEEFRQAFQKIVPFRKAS
# Text: as §1
# [1] = molecular target: T1, recombinant 5-HT2C receptor (human) (Homo sapiens, UniProt P28335); assay: 5-HT2C competition binding assay ([125I]-(±)DOI, SPA)
# T1 construct: expressed in transfected cells; host or cells: AV-12
# Procedure: [^125I]-(±)DOI binding experiments are carried out in SPA 96-well format. Membranes used in this assay are prepared from AV-12 cells stably expressing recombinant 5-HT2C receptor (human). The incubation is initiated by the addition of a mixture of WGA PVT SPA beads (0.5 mg/well, Perkin Elmer (MA, USA), RPNQ0001) and 2.5 μg membranes to assay buffer (50 mM Tris-HCl, 10 mM MgCl2, 0.5 mM EDTA, 10 μM pargyline, 0.1% ascorbic acid, pH7.4) containing 0.2 nM [[^125I]-(±)DOI and varying concentrations of the test compound (10 point concentration response curves). Non-specific binding is determined in the presence of 20 μM 1-(1-naphthyl) piperazine. Samples are incubated for 4 hr. at room temperature (22° C.) and then read in a Microbeta® Trilux.
# (§2) Binding data analysis Curves are evaluated using a 4-parameter logistic nonlinear equation to obtain the concentration of competitor causing 50% inhibition of radioligand binding (IC50). Equilibrium dissociation constants (Ki) are calculated according to the equation Ki=IC50/(1+L/Kd), where L equals the concentration of radioligand used in the experiment and Kd equals the equilibrium dissociation constant of the radioligand for the receptor, determined from standard saturation analysis or homologous competition experiments. […]
# Dopamine D1 = Dopamine D1 (Homo sapiens, UniProt P21728); assay: Dopamine D1 binding
# Sequence of Dopamine D1 (P21728 whole entry): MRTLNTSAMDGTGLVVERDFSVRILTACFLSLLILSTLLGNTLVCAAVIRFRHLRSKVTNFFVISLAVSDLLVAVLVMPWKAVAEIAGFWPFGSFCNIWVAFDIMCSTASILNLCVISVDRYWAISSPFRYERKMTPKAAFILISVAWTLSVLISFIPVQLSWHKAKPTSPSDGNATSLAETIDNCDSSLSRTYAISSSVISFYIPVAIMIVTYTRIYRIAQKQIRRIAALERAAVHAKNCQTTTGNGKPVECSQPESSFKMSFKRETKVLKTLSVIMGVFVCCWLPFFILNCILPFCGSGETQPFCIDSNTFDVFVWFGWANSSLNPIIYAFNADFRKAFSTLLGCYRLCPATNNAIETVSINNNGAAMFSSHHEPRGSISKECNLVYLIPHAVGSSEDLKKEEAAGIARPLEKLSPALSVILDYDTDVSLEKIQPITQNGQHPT
# Text: as §1
# 5-HT2B = 5-HT2B (Homo sapiens, UniProt P41595); assay: 5-HT2B antagonist functional activity; format: biochemical; details: antagonist mode
# Sequence of 5-HT2B (P41595 whole entry, species assumed): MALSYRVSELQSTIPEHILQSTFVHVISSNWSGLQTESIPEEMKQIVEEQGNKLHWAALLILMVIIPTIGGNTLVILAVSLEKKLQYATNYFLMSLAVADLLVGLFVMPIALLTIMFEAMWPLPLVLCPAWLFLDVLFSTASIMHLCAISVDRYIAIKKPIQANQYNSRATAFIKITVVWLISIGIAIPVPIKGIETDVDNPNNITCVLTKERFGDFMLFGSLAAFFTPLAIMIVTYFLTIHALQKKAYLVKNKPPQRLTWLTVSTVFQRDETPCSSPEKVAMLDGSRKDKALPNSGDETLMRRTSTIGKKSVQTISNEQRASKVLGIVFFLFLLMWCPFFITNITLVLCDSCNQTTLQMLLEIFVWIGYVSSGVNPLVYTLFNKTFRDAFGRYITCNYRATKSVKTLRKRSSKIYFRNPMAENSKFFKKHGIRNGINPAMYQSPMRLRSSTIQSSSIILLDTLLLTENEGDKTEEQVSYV
# Text: as §1
# [2] = molecular target: T2, recombinant 5-HT2A receptor (human) (Homo sapiens, UniProt P28223); assay: 5-HT2A competition binding assay ([3H]-Ketanserin, SPA)
# T2 construct: expressed in transfected cells; host or cells: AV-12
# T2 sequence (P28223 whole entry): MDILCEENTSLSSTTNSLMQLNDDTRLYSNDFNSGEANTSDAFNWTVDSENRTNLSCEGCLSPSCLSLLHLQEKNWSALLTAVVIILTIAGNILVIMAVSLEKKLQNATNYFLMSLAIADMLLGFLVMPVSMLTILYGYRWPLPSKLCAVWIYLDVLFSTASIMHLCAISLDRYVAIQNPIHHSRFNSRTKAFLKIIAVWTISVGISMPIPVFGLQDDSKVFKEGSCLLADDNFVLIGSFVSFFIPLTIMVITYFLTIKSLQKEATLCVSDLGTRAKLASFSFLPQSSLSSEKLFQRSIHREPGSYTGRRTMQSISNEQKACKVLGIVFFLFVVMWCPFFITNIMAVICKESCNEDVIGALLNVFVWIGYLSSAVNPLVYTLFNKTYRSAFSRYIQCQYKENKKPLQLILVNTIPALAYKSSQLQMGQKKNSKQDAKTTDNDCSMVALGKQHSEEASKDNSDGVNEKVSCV
# Procedure: [^3H]-Ketanserin binding experiments are carried out in SPA 96-well format. Membranes used in this assay are prepared from AV-12 cells stably expressing recombinant 5-HT2A receptor (human). The incubation is initiated by the addition of a mixture of WGA YSi SPA beads (1 mg/well, Perkin Elmer (MA, USA), RPNQ0011) and 2 μg membranes to assay buffer (67 mM Tris, 0.5 mM EDTA; pH 7.6) containing 3.1 nM [^3H]-Ketanserin and varying concentrations of the test compound (10 point concentration response curves). Non-specific binding is determined in the presence of 20 μM 1-(1-naphthyl) piperazine. Samples are incubated for 4 hr. at room temperature (22° C.) and then read in a Microbeta® Trilux.
# as §2, with “experiments. Reported values for Ki, where n values are indicated, are shown as geometric mean±the standard error of the mean (SEM), with the number of replicate determinations indicated by n.” for “experiments.”
# Adrenergic alpha1B = Adrenergic alpha1B (Homo sapiens, UniProt P35368); assay: Adrenergic alpha1B binding
# Text: as §1
# Dopamine Transporter = Dopamine Transporter (Homo sapiens, UniProt Q01959); assay: Dopamine transporter binding
# Sequence of Dopamine Transporter (Q01959 whole entry): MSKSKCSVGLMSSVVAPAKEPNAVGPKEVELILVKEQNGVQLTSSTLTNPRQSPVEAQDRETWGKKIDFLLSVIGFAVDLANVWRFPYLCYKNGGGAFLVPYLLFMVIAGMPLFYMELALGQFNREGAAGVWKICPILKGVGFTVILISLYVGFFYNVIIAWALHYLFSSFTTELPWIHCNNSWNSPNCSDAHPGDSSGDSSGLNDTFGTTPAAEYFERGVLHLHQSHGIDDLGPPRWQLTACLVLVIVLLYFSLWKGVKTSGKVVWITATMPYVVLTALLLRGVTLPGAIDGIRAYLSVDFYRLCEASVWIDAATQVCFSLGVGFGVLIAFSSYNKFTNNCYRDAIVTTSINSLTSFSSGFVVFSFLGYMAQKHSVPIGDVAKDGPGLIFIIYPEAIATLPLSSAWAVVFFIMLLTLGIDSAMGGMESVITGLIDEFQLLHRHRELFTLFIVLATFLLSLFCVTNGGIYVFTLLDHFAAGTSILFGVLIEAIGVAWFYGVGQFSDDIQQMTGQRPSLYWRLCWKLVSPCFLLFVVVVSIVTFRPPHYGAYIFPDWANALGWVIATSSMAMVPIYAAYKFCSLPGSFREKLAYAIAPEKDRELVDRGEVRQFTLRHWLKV
# Text: as §1
# Adrenergic alpha2C = Adrenergic alpha2C (Homo sapiens, UniProt P18825); assay: Adrenergic alpha2C binding
# Sequence of Adrenergic alpha2C (P18825 whole entry): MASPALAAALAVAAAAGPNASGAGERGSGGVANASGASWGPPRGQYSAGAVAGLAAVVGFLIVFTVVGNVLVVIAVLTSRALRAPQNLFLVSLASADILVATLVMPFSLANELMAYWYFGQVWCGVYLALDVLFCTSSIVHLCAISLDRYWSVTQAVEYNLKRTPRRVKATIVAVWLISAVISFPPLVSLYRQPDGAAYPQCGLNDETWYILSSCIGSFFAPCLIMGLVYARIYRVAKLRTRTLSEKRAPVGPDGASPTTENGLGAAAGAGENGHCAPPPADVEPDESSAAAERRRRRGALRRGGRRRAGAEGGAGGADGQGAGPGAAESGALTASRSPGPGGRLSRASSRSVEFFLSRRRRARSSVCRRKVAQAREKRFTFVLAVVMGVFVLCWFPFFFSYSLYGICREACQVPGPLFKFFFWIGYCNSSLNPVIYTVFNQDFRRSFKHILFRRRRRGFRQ
# Text: as §1
# Serotonin Transporter = Serotonin Transporter (Homo sapiens, UniProt P31645); assay: Serotonin transporter binding
# Sequence of Serotonin Transporter (P31645 whole entry): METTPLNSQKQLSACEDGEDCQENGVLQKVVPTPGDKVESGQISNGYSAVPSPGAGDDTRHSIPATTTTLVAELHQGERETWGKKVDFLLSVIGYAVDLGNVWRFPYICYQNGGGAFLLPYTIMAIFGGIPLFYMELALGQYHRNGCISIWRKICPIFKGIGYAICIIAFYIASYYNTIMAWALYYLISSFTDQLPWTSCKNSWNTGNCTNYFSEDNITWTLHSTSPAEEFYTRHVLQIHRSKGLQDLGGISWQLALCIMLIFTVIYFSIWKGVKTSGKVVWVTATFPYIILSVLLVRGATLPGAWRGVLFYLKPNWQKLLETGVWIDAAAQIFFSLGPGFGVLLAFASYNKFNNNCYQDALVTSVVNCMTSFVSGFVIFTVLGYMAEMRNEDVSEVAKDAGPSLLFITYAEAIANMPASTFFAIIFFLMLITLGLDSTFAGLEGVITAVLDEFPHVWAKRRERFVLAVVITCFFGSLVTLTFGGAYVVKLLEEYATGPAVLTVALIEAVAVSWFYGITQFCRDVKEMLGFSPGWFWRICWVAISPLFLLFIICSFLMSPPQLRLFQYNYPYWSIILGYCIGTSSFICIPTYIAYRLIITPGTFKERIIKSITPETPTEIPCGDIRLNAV
# Text: as §1
# Adrenergic alpha2B = Adrenergic alpha2B (Homo sapiens, UniProt P18089); assay: Adrenergic alpha2B binding
# Sequence of Adrenergic alpha2B (P18089 whole entry): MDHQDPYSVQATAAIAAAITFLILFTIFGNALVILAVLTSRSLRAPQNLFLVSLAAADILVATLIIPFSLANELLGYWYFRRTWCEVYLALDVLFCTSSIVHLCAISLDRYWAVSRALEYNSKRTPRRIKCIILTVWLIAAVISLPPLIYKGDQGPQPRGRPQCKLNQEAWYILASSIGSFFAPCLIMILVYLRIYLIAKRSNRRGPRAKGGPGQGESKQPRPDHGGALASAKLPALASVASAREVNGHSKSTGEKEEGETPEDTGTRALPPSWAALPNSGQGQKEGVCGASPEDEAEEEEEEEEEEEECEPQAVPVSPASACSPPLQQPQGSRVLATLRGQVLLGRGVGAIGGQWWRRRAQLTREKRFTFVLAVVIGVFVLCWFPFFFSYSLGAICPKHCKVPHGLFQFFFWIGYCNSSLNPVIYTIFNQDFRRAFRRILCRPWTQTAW
# Text: as §1
# Dopamine D3 = Dopamine D3 (Homo sapiens, UniProt P35462); assay: Dopamine D3 binding
# Sequence of Dopamine D3 (P35462 whole entry): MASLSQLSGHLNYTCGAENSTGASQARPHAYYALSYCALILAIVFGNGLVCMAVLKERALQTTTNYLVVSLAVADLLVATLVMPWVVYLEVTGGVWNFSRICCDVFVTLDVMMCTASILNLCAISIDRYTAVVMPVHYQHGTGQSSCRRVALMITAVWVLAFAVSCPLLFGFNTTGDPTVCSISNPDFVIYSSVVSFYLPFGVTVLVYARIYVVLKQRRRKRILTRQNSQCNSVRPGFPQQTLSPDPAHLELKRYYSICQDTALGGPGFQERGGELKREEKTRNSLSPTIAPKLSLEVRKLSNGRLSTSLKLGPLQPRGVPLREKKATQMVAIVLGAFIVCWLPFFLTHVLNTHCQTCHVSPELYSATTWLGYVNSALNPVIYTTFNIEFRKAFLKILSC
# Text: as §1
# Sequence of Norepinephrine Transport (P23975 whole entry): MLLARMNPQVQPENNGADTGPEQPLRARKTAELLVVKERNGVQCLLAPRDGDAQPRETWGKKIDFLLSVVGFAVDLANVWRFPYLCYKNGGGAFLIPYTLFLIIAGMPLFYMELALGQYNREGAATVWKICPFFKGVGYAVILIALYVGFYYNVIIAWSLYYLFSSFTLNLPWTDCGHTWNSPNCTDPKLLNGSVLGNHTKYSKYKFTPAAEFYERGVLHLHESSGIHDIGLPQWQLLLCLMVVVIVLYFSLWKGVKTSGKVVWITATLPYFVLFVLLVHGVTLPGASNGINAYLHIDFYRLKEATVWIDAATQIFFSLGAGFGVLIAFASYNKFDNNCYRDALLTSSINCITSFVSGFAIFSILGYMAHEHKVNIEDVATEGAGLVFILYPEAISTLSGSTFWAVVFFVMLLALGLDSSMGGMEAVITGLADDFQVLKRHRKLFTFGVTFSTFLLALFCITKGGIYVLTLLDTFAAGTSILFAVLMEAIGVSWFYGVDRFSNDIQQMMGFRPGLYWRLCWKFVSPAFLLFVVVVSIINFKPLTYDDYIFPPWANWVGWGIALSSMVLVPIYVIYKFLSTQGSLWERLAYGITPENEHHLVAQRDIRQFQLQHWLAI
smiles,measurement,setting,value
"Cc1ccc2c(c1)Oc1sc(C3CC3)cc1C(N1CCN(CC(C)(C)C(=O)O)CC1)=N2 [Example 2, 3-[4-(2-Cyclopropyl-8-methyl-thieno[2,3-b][1,5]benzoxazepin-4-yl)piperazin-1-yl]-2,2-dimethyl-propanoic acid dihydrochloride]",pKi,Norepinephrine Transport,< 6.17
same,pIC50,native GABAA receptors,< 4.00
same,pKi,5-HT1D,< 5.40
same,pKi,[1],6.31
same,pKi,Dopamine D1,6.00
same,Kb,5-HT2B,93.4 nM
same,pKi,[2],7.99
same,pKi,Adrenergic alpha1B,< 4.81
same,pKi,Dopamine Transporter,< 6.06
same,pKi,Adrenergic alpha2C,5.86
same,pKi,Serotonin Transporter,< 6.32
same,pKi,Adrenergic alpha2B,5.97
same,pKi,Dopamine D3,< 5.20
